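Protocol summary: plate cells (96-well), add compound at 5 concentrations, incubate 48 h, interpolate endpoints linearly. Definition used: TGI = concentration required for complete inhibition of growth.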
Assays:
Assay in all cases: NCI anticancer screen, dose series, 48 h
786-0 renal = tested on: 786-0 renal
A498 renal = tested on: A498 renal
A549 NSCLC = tested on: A549 NSCLC
ACHN renal = tested on: ACHN renal
CAKI-1 renal = tested on: CAKI-1 renal
CCRF-CEM leukemia = tested on: CCRF-CEM leukemia
COLO 205 colon = tested on: COLO 205 colon
DLD-1 colon = tested on: DLD-1 colon
DMS 114 small cell lung = tested on: DMS 114 small cell lung
DMS 273 small cell lung = tested on: DMS 273 small cell lung
EKVX NSCLC = tested on: EKVX NSCLC
HCC-2998 colon = tested on: HCC-2998 colon
HCT-116 colon = tested on: HCT-116 colon
HCT-15 colon = tested on: HCT-15 colon
HL-60(TB) leukemia = tested on: HL-60(TB) leukemia
HOP-18 NSCLC = tested on: HOP-18 NSCLC
HOP-62 NSCLC = tested on: HOP-62 NSCLC
HOP-92 NSCLC = tested on: HOP-92 NSCLC
HT29 colon = tested on: HT29 colon
IGROV1 ovarian = tested on: IGROV1 ovarian
K-562 leukemia = tested on: K-562 leukemia
KM12 colon = tested on: KM12 colon
KM20L2 colon = tested on: KM20L2 colon
LOX IMVI melanoma = tested on: LOX IMVI melanoma
LXFL 529 NSCLC = tested on: LXFL 529 NSCLC
M14 melanoma = tested on: M14 melanoma
M19-MEL melanoma = tested on: M19-MEL melanoma
MALME-3M melanoma = tested on: MALME-3M melanoma
MOLT-4 leukemia = tested on: MOLT-4 leukemia
NCI-H226 lung = tested on: NCI-H226 lung
NCI-H23 lung = tested on: NCI-H23 lung
NCI-H460 lung = tested on: NCI-H460 lung
NCI-H522 lung = tested on: NCI-H522 lung
OVCAR-3 ovarian = tested on: OVCAR-3 ovarian
OVCAR-4 ovarian = tested on: OVCAR-4 ovarian
OVCAR-5 ovarian = tested on: OVCAR-5 ovarian
OVCAR-8 ovarian = tested on: OVCAR-8 ovarian
RPMI-8226 leukemia = tested on: RPMI-8226 leukemia
SF-268 CNS = tested on: SF-268 CNS
SF-295 CNS = tested on: SF-295 CNS
SF-539 CNS = tested on: SF-539 CNS
SK-MEL-2 melanoma = tested on: SK-MEL-2 melanoma
SK-MEL-28 melanoma = tested on: SK-MEL-28 melanoma
SK-MEL-5 melanoma = tested on: SK-MEL-5 melanoma
SK-OV-3 ovarian = tested on: SK-OV-3 ovarian
SN12C renal = tested on: SN12C renal
SNB-19 CNS = tested on: SNB-19 CNS
SNB-75 CNS = tested on: SNB-75 CNS
SNB-78 CNS = tested on: SNB-78 CNS
SR leukemia = tested on: SR leukemia
SW-620 colon = tested on: SW-620 colon
TK-10 renal = tested on: TK-10 renal
U251 CNS = tested on: U251 CNS
UACC-257 melanoma = tested on: UACC-257 melanoma
UACC-62 melanoma = tested on: UACC-62 melanoma
UO-31 renal = tested on: UO-31 renal
XF 498 CNS = tested on: XF 498 CNS
BT-549 breast = tested on: BT-549 breast
DU-145 prostate = tested on: DU-145 prostate
HS 578T breast = tested on: HS 578T breast
MCF7 breast = tested on: MCF7 breast
MDA-MB-435 = tested on: MDA-MB-435
MDA-N = tested on: MDA-N
NCI/ADR-RES ovarian = tested on: NCI/ADR-RES ovarian
PC-3 prostate = tested on: PC-3 prostate
RXF 393 renal = tested on: RXF 393 renal

Compound `O=CN/C=C\c1cc(O)ccc1O` has a TGI (786-0 renal) of 31.1 µM, a TGI (A498 renal) of over 100 µM and a TGI (A549 NSCLC) of over 100 µM. For the same compound, the TGI (ACHN renal) was 28.2 µM, the TGI (CAKI-1 renal) was 26.4 µM and the TGI (CCRF-CEM leukemia) was over 100 µM. For the same compound, the TGI (COLO 205 colon) was 29.5 µM, the TGI (DLD-1 colon) was 31.6 µM and the TGI (DMS 114 small cell lung) was 52.3 µM. It also gave a TGI (DMS 273 small cell lung) of over 41.1 µM, a TGI (EKVX NSCLC) of 32.9 µM and a TGI (HCC-2998 colon) of over 100 µM. The TGI (HCT-116 colon) was 25.2 µM, the TGI (HCT-15 colon) was 23.7 µM and the TGI (HL-60(TB) leukemia) was 47.8 µM. It also gave a TGI (HOP-18 NSCLC) of 30.7 µM, a TGI (HOP-62 NSCLC) of 60.2 µM and a TGI (HOP-92 NSCLC) of 28 µM. It also gave a TGI (HT29 colon) of over 31.6 µM, a TGI (IGROV1 ovarian) of over 58.4 µM and a TGI (K-562 leukemia) of over 100 µM. The TGI (KM12 colon) was over 100 µM, the TGI (KM20L2 colon) was over 62.4 µM and the TGI (LOX IMVI melanoma) was 22.7 µM. For the same compound, the TGI (LXFL 529 NSCLC) was 22.8 µM, the TGI (M14 melanoma) was over 50.3 µM and the TGI (M19-MEL melanoma) was 40.2 µM. For the same compound, the TGI (MALME-3M melanoma) was 28.9 µM, the TGI (MOLT-4 leukemia) was 70.6 µM and the TGI (NCI-H226 lung) was over 100 µM. For the same compound, the TGI (NCI-H23 lung) was over 56.1 µM, the TGI (NCI-H460 lung) was over 56.2 µM and the TGI (NCI-H522 lung) was 10 µM. It also gave a TGI (OVCAR-3 ovarian) of 25 µM, a TGI (OVCAR-4 ovarian) of 26.8 µM and a TGI (OVCAR-5 ovarian) of over 100 µM. It also gave a TGI (OVCAR-8 ovarian) of 32.1 µM, a TGI (RPMI-8226 leukemia) of 44.6 µM and a TGI (SF-268 CNS) of over 57.8 µM. The TGI (SF-295 CNS) was over 100 µM, the TGI (SF-539 CNS) was over 49.6 µM and the TGI (SK-MEL-2 melanoma) was over 100 µM. It also gave a TGI (SK-MEL-28 melanoma) of over 64.9 µM, a TGI (SK-MEL-5 melanoma) of over 50.9 µM and a TGI (SK-OV-3 ovarian) of over 100 µM. It also gave a TGI (SN12C renal) of 28.9 µM, a TGI (SNB-19 CNS) of over 100 µM and a TGI (SNB-75 CNS) of over 100 µM. For the same compound, the TGI (SNB-78 CNS) was over 100 µM, the TGI (SR leukemia) was 21.3 µM and the TGI (SW-620 colon) was 25.6 µM. The TGI (TK-10 renal) was over 64.7 µM, the TGI (U251 CNS) was over 81 µM and the TGI (UACC-257 melanoma) was 19.2 µM. For the same compound, the TGI (UACC-62 melanoma) was 17.5 µM, the TGI (UO-31 renal) was 29.1 µM and the TGI (XF 498 CNS) was 28.8 µM.

`COc1ccc(/C=C2\CCC(CN(C)C)C2=O)cc1` (configuration not stated) gave a TGI (786-0 renal) of 3.17 µM, a TGI (A498 renal) of 28.9 µM and a TGI (A549 NSCLC) of 30.6 µM. It also gave a TGI (ACHN renal) of 21.3 µM, a TGI (BT-549 breast) of 9.27 µM and a TGI (CAKI-1 renal) of 5.05 µM. For the same compound, the TGI (CCRF-CEM leukemia) was over 25.9 µM, the TGI (COLO 205 colon) was 10.4 µM and the TGI (DLD-1 colon) was 12.5 µM. The TGI (DMS 114 small cell lung) was 21.6 µM, the TGI (DU-145 prostate) was 5.8 µM and the TGI (EKVX NSCLC) was 37.5 µM. For the same compound, the TGI (HCC-2998 colon) was 19.1 µM, the TGI (HCT-116 colon) was 8.27 µM and the TGI (HCT-15 colon) was 6.49 µM. For the same compound, the TGI (HL-60(TB) leukemia) was 4.23 µM, the TGI (HOP-18 NSCLC) was 19.9 µM and the TGI (HOP-62 NSCLC) was 33.6 µM. It also gave a TGI (HOP-92 NSCLC) of 28.2 µM, a TGI (HS 578T breast) of over 100 µM and a TGI (HT29 colon) of 24.1 µM. For the same compound, the TGI (IGROV1 ovarian) was 18.4 µM, the TGI (K-562 leukemia) was 7.25 µM and the TGI (KM12 colon) was 22.1 µM. The TGI (KM20L2 colon) was 36.8 µM, the TGI (LOX IMVI melanoma) was 3.63 µM and the TGI (LXFL 529 NSCLC) was 4.17 µM. It also gave a TGI (M14 melanoma) of 7.02 µM, a TGI (M19-MEL melanoma) of 26.6 µM and a TGI (MALME-3M melanoma) of 11.1 µM. It also gave a TGI (MCF7 breast) of 6.03 µM, a TGI (MDA-MB-435) of 3.63 µM and a TGI (MDA-N) of 9.09 µM. It also gave a TGI (MOLT-4 leukemia) of 6.85 µM, a TGI (NCI-H226 lung) of 31.6 µM and a TGI (NCI-H23 lung) of 18.3 µM. The TGI (NCI-H460 lung) was 36.4 µM, the TGI (NCI-H522 lung) was 2.84 µM and the TGI (NCI/ADR-RES ovarian) was 5.07 µM. For the same compound, the TGI (OVCAR-3 ovarian) was 10.6 µM, the TGI (OVCAR-4 ovarian) was 16.1 µM and the TGI (OVCAR-5 ovarian) was 30 µM. For the same compound, the TGI (OVCAR-8 ovarian) was 12.1 µM, the TGI (PC-3 prostate) was 19.6 µM and the TGI (RPMI-8226 leukemia) was 3.97 µM. It also gave a TGI (RXF 393 renal) of 13.6 µM, a TGI (SF-268 CNS) of 19.1 µM and a TGI (SF-295 CNS) of 32.1 µM. It also gave a TGI (SF-539 CNS) of 16 µM, a TGI (SK-MEL-2 melanoma) of 17.6 µM and a TGI (SK-MEL-28 melanoma) of 14.6 µM. It also gave a TGI (SK-MEL-5 melanoma) of 16.3 µM, a TGI (SK-OV-3 ovarian) of 31.4 µM and a TGI (SN12C renal) of 32.8 µM. For the same compound, the TGI (SNB-19 CNS) was 23.2 µM, the TGI (SNB-75 CNS) was 25.6 µM and the TGI (SNB-78 CNS) was 51.9 µM. It also gave a TGI (SR leukemia) of 6.21 µM, a TGI (SW-620 colon) of 4.32 µM and a TGI (TK-10 renal) of 14 µM. The TGI (U251 CNS) was 32.7 µM, the TGI (UACC-257 melanoma) was 13.3 µM and the TGI (UACC-62 melanoma) was 22.6 µM. For the same compound, the TGI (UO-31 renal) was 15.5 µM and the TGI (XF 498 CNS) was 16.3 µM.
